Results as given in patent US20120245177A1, “CRYSTALLINE LEVOFOLINIC ACID AND PROCESS FOR ITS PREPARATION” (GMT FINE CHEMICALS SA, priority 2011, published 2012).

Legend:
[1] = Long-term stability test (ICH conditions); type: physicochemical; conditions: for Assay of Levofolinic acid (% m/m): anhydrous and solvent free basis; for Appearance: specification white to pale yellow powder
Description: (§1) Two specimens of the product obtained in example 1 are subjected to accelerated stability tests and long-term stability tests, respectively; the tests are carried out according to ICH conditions. Long-term: 25±2° C., 60±5% relative humidity Analytical methods used for the stability studies tests are described in the calcium levofolinate monograph of the European Pharmacopoeia.

[2] = easily converted into by-products if pH lower than 3.0 or temperature reaches 60° C. during pH lowering; per U.S. Pat. No. 6,441,168 B1; cited from earlier work
[3] = Solubility in water or hydroalcoholic mixtures; type: physicochemical; conditions: pH range between 3.0 and 4.5
[4] = Accelerated stability test (ICH conditions); type: physicochemical; conditions: accelerated: 40±2° C., 75±5% relative humidity; for Assay of Levofolinic acid (% m/m): anhydrous and solvent free basis; for Appearance: specification white to pale yellow powder
Description: as §1, with “Accelerated: 40±2°” for “Long-term: 25±2°”, “75±5%” for “60±5%”

[5] = long-term: 25±2° C., 60±5% relative humidity, 18 months
[6] = long-term: 25±2° C., 60±5% relative humidity, 24 months
[7] = long-term: 25±2° C., 60±5% relative humidity, 36 months

Sum of all relates substances (% area) [1, 5]: 0.63 % area
Water content (%) [1, 5]: 0.9%
Assay of Levofolinic acid (% m/m) [1, 5]: 100.2 % m/m
Appearance [1, 5]: Conform
Aspect of a 1.0% m/V solution in Tris solution corrected at pH = 8.1: Absorbance at 420 nm [1, 6]: 0.06
Content of Dextrofolinic acid (H) [1, 6]: <0.10%
Related substances: 5-CHO-4H-Pteroic acid (E) (% area) [1, 6]: 0.31 % area
Related substances: Any individual unknown impurities [1, 6]: <0.10 % area
Related substances: Dihydrofolic acid (G) (% area) [1, 6]: <0.10 % area
Related substances: Folic acid (C) (% area) [1, 6]: <0.10 % area
Related substances: N^5-N^10-diformyl-THF (B) (% area) [1, 6]: <0.10 % area
Related substances: N^10-CHO-dihydrofolic acid (F) (% area) [1, 6]: 0.16 % area
Related substances: N^10-CHO-folic acid (D) (% m/m) [1, 6]: <0.10 % m/m
Related substances: PABG (A) (% area) [1, 6]: 0.13 % area
Sum of all relates substances (% area) [1, 6]: 0.66 % area
Water content (%) [1, 6]: 0.7%
Assay of Levofolinic acid (% m/m) [1, 6]: 99.4 % m/m
Appearance [1, 6]: Conform
Aspect of a 1.0% m/V solution in Tris solution corrected at pH = 8.1: Absorbance at 420 nm [1, 7]: 0.08
Content of Dextrofolinic acid (H) [1, 7]: <0.10%
Optical rotation of a 1.0% m/V solution in Tris solution corrected at pH = 8.1 [1, 7]: −14.9°
Related substances: 5-CHO-4H-Pteroic acid (E) (% area) [1, 7]: 0.33 % area
Related substances: Any individual unknown impurities [1, 7]: <0.10 % area
Related substances: Dihydrofolic acid (G) (% area) [1, 7]: <0.10 % area
Related substances: Folic acid (C) (% area) [1, 7]: <0.10 % area
Related substances: N^5-N^10-diformyl-THF (B) (% area) [1, 7]: <0.10 % area
Related substances: N^10-CHO-dihydrofolic acid (F) (% area) [1, 7]: 0.25 % area
Related substances: N^10-CHO-folic acid (D) (% m/m) [1, 7]: <0.10 % m/m
Related substances: PABG (A) (% area) [1, 7]: 0.16 % area
Sum of all relates substances (% area) [1, 7]: 0.73 % area
Water content (%) [1, 7]: 1.0%
Assay of Levofolinic acid (% m/m) [1, 7]: 99.6 % m/m
Appearance [1, 7]: Conform
Stability (conclusion from stability data of tables 2 and 3) ([1]; may resist unaltered during a shelf-life of up to three years): stable
Stability compared with known forms ([1]; versus calcium levofolinate of the known art or levofolinic acid amorphous of U.S. Pat. No. 5,134,235): better properties
Solubility [3]: scarcely soluble
Aspect of a 1.0% w/v solution in Tris buffer solution corrected at pH = 8.1: Absorbance at 420 nm ([4]; 0 months): 0.06
Content of Dextrofolinic acid (H) ([4]; 0 months): <0.10%
Optical rotation of a 1.0% w/v solution in Tris solution corrected at pH = 8.1 ([4]; 0 months): −12.8 °
Related substances: 5-CHO—4H-Pteroic acid (E) (% area) ([4]; 0 months): 0.36 % area
Related substances: Any individual unknown impurities ([4]; 0 months): <0.10 % area
Related substances: Dihydrofolic acid (G) (% area) ([4]; 0 months): <0.10 % area
Related substances: Folic acid (C) (% area) ([4]; 0 months): <0.10 % area
Related substances: N^5-N^10-diformyl-THF (B) (% area) ([4]; 0 months): <0.10 % area
Related substances: N^10—CHO-dihydrofolic acid (F) (% area) ([4]; 0 months): <0.10 % area
Related substances: N^10—CHO-folic acid (D) (% m/m) ([4]; 0 months): <0.10 % m/m
Related substances: PABG (A) (% area) ([4]; 0 months): <0.10 % area
Sum of all relates substances (% area) ([4]; 0 months): 0.57 % area
Water content (%) ([4]; 0 months): 0.8%
Assay of Levofolinic acid (% m/m) ([4]; 0 months): 99.7 % m/m
Appearance ([4]; 0 months): Conform
Aspect of a 1.0% w/v solution in Tris buffer solution corrected at pH = 8.1: Absorbance at 420 nm ([4]; 3 months): 0.05
Related substances: 5-CHO—4H-Pteroic acid (E) (% area) ([4]; 3 months): 0.37 % area
Related substances: Any individual unknown impurities ([4]; 3 months): <0.10 % area
Related substances: Dihydrofolic acid (G) (% area) ([4]; 3 months): <0.10 % area
Related substances: Folic acid (C) (% area) ([4]; 3 months): <0.10 % area
Related substances: N^5-N^10-diformyl-THF (B) (% area) ([4]; 3 months): <0.10 % area
Related substances: N^10—CHO-dihydrofolic acid (F) (% area) ([4]; 3 months): 0.16 % area
Related substances: N^10—CHO-folic acid (D) (% m/m) ([4]; 3 months): <0.10 % m/m
Related substances: PABG (A) (% area) ([4]; 3 months): <0.10 % area
Sum of all relates substances (% area) ([4]; 3 months): 0.63 % area
Water content (%) ([4]; 3 months): 0.8%
Assay of Levofolinic acid (% m/m) ([4]; 3 months): 99.9 % m/m
Appearance ([4]; 3 months): Conform
Aspect of a 1.0% w/v solution in Tris buffer solution corrected at pH = 8.1: Absorbance at 420 nm ([4]; 6 months): 0.06
Content of Dextrofolinic acid (H) ([4]; 6 months): <0.10%
Related substances: 5-CHO—4H-Pteroic acid (E) (% area) ([4]; 6 months): 0.33 % area
Related substances: Any individual unknown impurities ([4]; 6 months): <0.10 % area
Related substances: Dihydrofolic acid (G) (% area) ([4]; 6 months): <0.10 % area
Related substances: Folic acid (C) (% area) ([4]; 6 months): <0.10 % area
Related substances: N^5-N^10-diformyl-THF (B) (% area) ([4]; 6 months): <0.10 % area
Related substances: N^10—CHO-dihydrofolic acid (F) (% area) ([4]; 6 months): 0.25 % area
Related substances: N^10—CHO-folic acid (D) (% m/m) ([4]; 6 months): <0.10 % m/m
Related substances: PABG (A) (% area) ([4]; 6 months): 0.13 % area
Sum of all relates substances (% area) ([4]; 6 months): 0.84 % area
Water content (%) ([4]; 6 months): 1.1%
Assay of Levofolinic acid (% m/m) ([4]; 6 months): 99.0 % m/m
Appearance ([4]; 6 months): Conform
Compound: Nc1nc(=O)c2c([nH]1)NC[C@H](CNc1ccc(C(=O)N[C@@H](CCC(=O)O)C(=O)O)cc1)N2C=O [Example 1, (6S)—N(5)-formyl-5,6,7,8-tetrahydrofolic acid]
Stability [2]: unstable
